We go through eleven compounds from patent publication US20220030867A1 (priority 2018, published 2022).

Series [1] concerns Magnaporthe grisea (Pyricularia oryzae). Briefly: microbe, parasite or virus in culture. It is filed as cell-based. To be noted: read-out: control of Magnaporthe grisea.
For series [2], the system named is Fusarium culmorum. The series is described as follows: whole plant or invertebrate. It is filed as in vivo, Fusarium culmorum on wheat spikelets cv. Monsun. The conditions noted are these: in Triticum aestivum, read-out: control of Fusarium culmorum.
For series [3], the system named is Mycosphaerella graminicola (Septoria tritici). The series is described as follows: Mycosphaerella graminicola (Septoria tritici) / liquid culture (Septoria blotch). In kind it is cell-based. The conditions noted are these: Zymoseptoria tritici, growth inhibition photometrically 4-5 days after application, vs untreated control. The procedure:
Mycosphaerella graminicola (Septoria tritici)/Liquid Culture (Septoria Blotch)
(§1) Conidia of the fungus from cryogenic storage are directly mixed into nutrient broth (PDB potato dextrose broth). After placing a (DMSO) solution of test compound into a microtiter plate (96-well format), the nutrient broth containing the fungal spores is added. The test plates are incubated at 24° C. and the inhibition of growth is determined photometrically 4-5 days after application.

Series [4] relates to Magnaporthe grisea (Pyricularia oryzae). The series is described as follows: whole plant or invertebrate. To be noted: foliar, read-out: control of Magnaporthe grisea. In kind it is in vivo, Magnaporthe grisea on rice leaf segments cv. Ballila.
Series [5] concerns Fusarium culmorum. The series is described as follows: microbe, parasite or virus in culture. In kind it is cell-based. The conditions noted are these: read-out: control of Fusarium culmorum.
Another series concerns Sclerotinia sclerotiorum. The series is described as follows: Sclerotinia sclerotiorum / liquid culture (cottony rot). In kind it is cell-based. The conditions noted are these: growth inhibition photometrically 3-4 days after application, vs untreated control. The procedure:
Sclerotinia sclerotiorum/Liquid Culture (Cottony Rot)
Mycelia fragments of a newly grown liquid culture of the fungus are directly mixed into nutrient broth (Vogels broth). After placing a (DMSO) solution of test compound into a microtiter plate (96-well format) the nutrient broth containing the fungal material is added. The test plates are incubated at 24° C. and the inhibition of growth is determined photometrically 3-4 days after application.

Series [6] relates to Glomerella lagenarium (Colletotrichum lagenarium). Briefly: Glomerella lagenarium (Colletotrichum lagenarium) / liquid culture (anthracnose). It is filed as cell-based. To be noted: Colletotrichum orbiculare, growth inhibition photometrically 3-4 days after application, vs untreated control. The method, then: Conidia of the fungus from cryogenic storage are directly mixed into nutrient broth (PDB potato dextrose broth). After placing a (DMSO) solution of test compound into a microtiter plate (96-well format), the nutrient broth containing the fungal spores is added. The test plates are incubated at 24° C. and the inhibition of growth is measured photometrically 3-4 days after application.

Series [7] has as its system Monographella nivalis (Microdochium nivale). The series is described as follows: Monographella nivalis (Microdochium nivale) / liquid culture (foot rot cereals). It is filed as cell-based. The conditions noted are these: growth inhibition photometrically 4-5 days after application, vs untreated control. The procedure:
Monographella nivalis (Microdochium nivale)/Liquid Culture (Foot Rot Cereals)
as §1

Series [8] concerns Botryotinia fuckeliana (Botrytis cinerea). Briefly: Botryotinia fuckeliana (Botrytis cinerea) / liquid culture (gray mould). It is filed as cell-based. To be noted: growth inhibition photometrically 3-4 days after application, vs untreated control. The method, then: Botryotinia fuckeliana (Botrytis cinerea)/Liquid Culture (Gray Mould)
Conidia of the fungus from cryogenic storage are directly mixed into nutrient broth (Vogels broth). After placing a (DMSO) solution of test compound into a microtiter plate (96-well format), the nutrient broth containing the fungal spores is added. The test plates are incubated at 24° C. and the inhibition of growth is determined photometrically 3-4 days after application.

With `CC(C)CC(F)(Cc1ccccc1)C(=O)Nc1cnc2c(F)cccc2c1` (stereo not drawn) [Compound E-1], the inhibition of growth at 200 ppm in series [1] and in series [3] was not below 80% throughout. For the same compound, the pest or weed control at 200 ppm (with Fusarium culmorum [2]; in series [4]) was not below 80% in each case.
On to `C=C(Cl)CC(Cc1ccccc1)C(=O)Nc1cc2cccc(F)c2nc1C` (stereo not drawn) [Compound E-4, 2-benzyl-4-chloro-N-(8-fluoro-2-methyl-3-quinolyl)pent-4-enamide], for which the melting point (as a rule, the temperature, or range, at which the solid turns liquid) was 96 to 99 °C. In series [1], the inhibition of growth at 200 ppm is not below 80%. The same compound displayed an inhibition of growth at 200 ppm in series [3] not below 80%.
The compound `Cc1nc2c(F)cccc2cc1NC(=O)C(Cc1ccccc1)CC1(C)CC1` (stereo not drawn) [Compound E-89, 2-benzyl-N-(8-fluoro-2-methyl-3-quinolyl)-3-(1-methylcyclopropyl)propanamide] registered a melting point of 162 to 163 °C. The inhibition of growth at 200 ppm in the series on Fusarium culmorum [5] was not below 80%. In the series on Sclerotinia sclerotiorum, the inhibition of growth at 20 ppm is not below 80%. Further, the inhibition of growth at 200 ppm in series [1] is not below 80%. Further, the pest or weed control at 200 ppm with Fusarium culmorum [2] was not below 80%. The same compound had an inhibition of growth at 200 ppm in series [6] not below 80%. The same compound had an inhibition of growth at 200 ppm in series [7] not below 80%. The pest or weed control at 200 ppm in series [4] is not below 80%. For the same compound, the inhibition of growth at 200 ppm in [8] was not below 80%.
`Cc1c(NC(=O)C(Cc2ccccc2)CC2(C)CC2)cnc2c(F)cccc12` (stereo not drawn) [Compound E-90, 2-benzyl-N-(8-fluoro-4-methyl-3-quinolyl)-3-(1-methylcyclopropyl)propanamide]: the melting point was 144 to 146 °C. In addition, the inhibition of growth at 200 ppm with Fusarium culmorum [5] is not below 80%. The same compound yielded an inhibition of growth at 20 ppm with Sclerotinia sclerotiorum not below 80%. The inhibition of growth at 200 ppm in [1] is not below 80%. In addition, in the series with Fusarium culmorum [2], the pest or weed control at 200 ppm was not below 80%. Further, in series [6], the inhibition of growth at 200 ppm was not below 80%. For the same compound, in series [7], the inhibition of growth at 200 ppm is not below 80%. The pest or weed control at 200 ppm in series [4] is not below 80%. The inhibition of growth at 200 ppm in series [8] was not below 80%.
Compound `CC1(CC(Cc2ccccc2)C(=O)Nc2cnc3c(F)cccc3c2)CC1` (stereo not drawn) [Compound E-91, 2-benzyl-N-(8-fluoro-3-quinolyl)-3-(1-methylcyclopropyl)propanamide] yielded a melting point of 135 to 136 °C. Moreover, in the series on Fusarium culmorum [5], the inhibition of growth at 200 ppm was not below 80%. In addition, the inhibition of growth at 20 ppm with Sclerotinia sclerotiorum was not below 80%. The inhibition of growth at 200 ppm in [1] was not below 80%. Besides, the pest or weed control at 200 ppm with Fusarium culmorum [2] is not below 80%. This compound also had an inhibition of growth at 200 ppm in series [6] not below 80%. This compound also gave an inhibition of growth at 200 ppm in series [7] not below 80%. Also, in series [4], the pest or weed control at 200 ppm was not below 80%. In series [8], this compound registered an inhibition of growth at 200 ppm not below 80%.
The compound `C=C(C)CC(Cc1ccccc1)C(=O)Nc1cc2cccc(F)c2nc1C` (stereo not drawn) [Compound E-92, 2-benzyl-N-(8-fluoro-2-methyl-3-quinolyl)-4-methyl-pent-4-enamide] displayed a melting point of 97 to 99 °C. The inhibition of growth at 200 ppm in series [1] is not below 80%. Besides, in the series on Fusarium culmorum [2], the pest or weed control at 200 ppm was not below 80%. Further, the inhibition of growth at 200 ppm in series [3] is not below 80%.
The compound `C=C(C)CC(Cc1ccccc1)C(=O)Nc1cnc2c(F)cccc2c1C` (stereo not drawn) [Compound E-93, 2-benzyl-N-(8-fluoro-4-methyl-3-quinolyl)-4-methyl-pent-4-enamide] registered a melting point of 116 to 118 °C. This compound gave an inhibition of growth at 20 ppm with Sclerotinia sclerotiorum not below 80%. Besides, the inhibition of growth at 200 ppm in [1] was not below 80%. In addition, the inhibition of growth at 200 ppm in [3] was not below 80%. The pest or weed control at 200 ppm in series [4] was not below 80%.
In the case of `Cc1c(NC(=O)C(Cc2ccccc2)CC(C)(C)C)cnc2c(F)cccc12` (stereo not drawn) [Compound E-96, 2-benzyl-N-(8-fluoro-4-methyl-3-quinolyl)-4,4-dimethyl-pentanamide], the melting point was in the range of 135 to 136 °C. In addition, the inhibition of growth at 200 ppm with Fusarium culmorum [5] is not below 80%. Besides, the inhibition of growth at 20 ppm with Sclerotinia sclerotiorum is not below 80%. Further, in [1], the inhibition of growth at 200 ppm is not below 80%. Moreover, in the series with Fusarium culmorum [2], the pest or weed control at 200 ppm is not below 80%. Also, the inhibition of growth at 200 ppm in [6] is not below 80%. This compound also displayed an inhibition of growth at 200 ppm in [7] not below 80%. Besides, the pest or weed control at 200 ppm in series [4] was not below 80%. Moreover, the inhibition of growth at 200 ppm in series [8] was not below 80%.
On to `C=C(Cl)C[C@@H](Cc1ccccc1)C(=O)Nc1cc2cccc(F)c2nc1C` [Compound F-25, (2R)-2-benzyl-4-chloro-N-(8-fluoro-2-methyl-3-quinolyl)pent-4-enamide], for which the inhibition of growth at 200 ppm (with Fusarium culmorum [5]; in [1]; in series [3]; in series [6]; in [8]) was not below 80% each time. The pest or weed control at 200 ppm (with Fusarium culmorum [2]; in [4]) was not below 80% throughout.
Turning to `C=C(Cl)C[C@@H](Cc1ccccc1)C(=O)Nc1cnc2c(F)cccc2c1C` [Compound F-27, (2R)-2-benzyl-4-chloro-N-(8-fluoro-4-methyl-3-quinolyl)pent-4-enamide], the inhibition of growth at 200 ppm in series [1], in [3], in [6], in [7] and in series [8] was not below 80% throughout.
As for `Cc1c(NC(=O)[C@@H](Cc2ccccc2)CC2(C)CC2)cnc2c(F)cccc12` [Compound F-40, (2R)-2-benzyl-N-(8-fluoro-4-methyl-3-quinolyl)-3-(1-methylcyclopropyl)propanamide], the inhibition of growth at 200 ppm (with Fusarium culmorum [5]; in series [1]; in series [3]; in [6]; in series [7]; in [8]) was not below 80% in each case. Also, the inhibition of growth at 20 ppm in the series on Sclerotinia sclerotiorum is not below 80%. Moreover, the pest or weed control at 200 ppm in the series with Fusarium culmorum [2] was not below 80%.
